Like-named read-outs stand apart in the source and are kept apart here.
Assay: Solubility observations on photoproducts
Type: physicochemical
Protocol: Photoproduct 26 was identified by ^1H NMR spectroscopy and elemental analysis. […] Regioisomer 28 would have shown only four vicinal couplings in the COSY spectrum. […] The compound was obtainable only as a powder, despite repeated attempts to obtain crystals for structure determination using X-ray diffraction.
Similarly, preparative photolysis of […] acid 9 (LG^−=Cl^−) in N2 saturated 75% H2O in CH3CN containing 100 mM phosphate buffer (pH 7) gave the single regioisomeric photoproduct 27 in 98% yield by NMR integration, as above for 8 (LG^−=Cl^−). The regiospecificity was again established by 600 MHz ^1H NMR COSY. […] Photolysis of acid 9 (LG^−=PhS^−, HS^−, PhCH2S^−) under the same conditions as 8 (LG^−=Cl^−) also gave photoproduct 27 in 98-100% yields upon expulsion of these thiolate leaving groups. For acid 9 (LG^−=PhCH2S^−) the released benzyl thiol was quantified in photolyses of 4.5×10^−3 M solutions of 35% D2O in CD3CN containing phosphate buffer (as above) contained in NMR tubes. Yields were 96% thiol and 99% of 27 at 100% conversion of reactant by ^1H NMR spectroscopy. Very similar results were found when DMSO-d6 was the photolysis solvent.
A 0.010 M solution of 8 (LG^−=Cl^−) in N2 saturated 17% H2O in CH3CN containing 100 mM phosphate buffer at pH 7 was irradiated with a 450 W Hanovia medium pressure mercury lamp with a Pyrex filter for 90 min. […]

solubility (in DMSO-d6, 13C-NMR could not be obtained) | solubility | SMILES
low solubility | – | Cn1c(=O)c2sc3ccccc3c2c2cc3sc4ccccc4c(=O)c3cc21 [compound 31]
– | low solubility | COC(=O)c1ccc2c(c1)sc1c(=O)n(C)c3cc4c(=O)c5cc(Br)ccc5sc4cc3c12 [compound 32, 6-methylcarboxylate-[1]benzothiopheno[2,3-c]benzo[a]anthracene-10-bromo-4-methyl-4H-7-thia-4-aza-3,12-dione]
